Measured values taken from paper PMC10065799, “High-throughput profiling of sequence recognition by tyrosine kinases and SH2 domains using bacterial peptide display” (eLife, 2023).
Square brackets hold non-standard residues; d marks the D form. * marks the point of attachment. FITC = O=C1OC2(c3ccc(O)cc3Oc3cc(O)ccc32)c2ccc(NC(=S)*)cc21; pY = N[C@@H](Cc1ccc(OP(=O)(O)O)cc1)C(=O)O; Ahx = NCCCCCC(=O)O

T1: c-Abl kinase domain (Mus musculus, UniProt P00520)
T1 sequence (P00520 242-493 limits assumed): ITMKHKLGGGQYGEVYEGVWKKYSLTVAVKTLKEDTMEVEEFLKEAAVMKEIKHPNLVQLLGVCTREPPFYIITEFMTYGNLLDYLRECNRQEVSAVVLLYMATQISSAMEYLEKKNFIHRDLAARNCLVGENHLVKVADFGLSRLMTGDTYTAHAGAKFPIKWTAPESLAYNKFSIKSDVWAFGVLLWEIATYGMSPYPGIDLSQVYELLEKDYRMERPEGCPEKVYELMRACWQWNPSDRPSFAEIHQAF


How the values were obtained:
[1] = biological target: T2, c-Src kinase domain (Homo sapiens, UniProt P12931); test: pTyr-Var library bacterial peptide display kinase screen (enrichment scores); type: biochemical; conditions: sheet "Src";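 further: log2 fold change in enrichment of variant over reference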
[2] = test system: Fer kinase domain; test: as above; type: biochemical, mouse; conditions: sheet "Fer";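 further: log2 fold change in enrichment of variant over reference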
[3] = test system: EPHB1 kinase domain; test: as above; type: biochemical, human; conditions: for Screen: sheet EPHB1, effect of the variant peptide relative to its reference peptide in the pTyr-Var library screen (enrichment scores); for Screen (variant relative to reference peptide, measured in the pTyr-Var library screen): sheet "EPHB1", variant seq vs reference seq, bacterial peptide display enrichment
[4] = test system: EPHB2 kinase domain; test: as above; type: biochemical, human; conditions: sheet EPHB2;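 further: log2 fold change in enrichment of variant over reference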
[5] = biological target: T1, c-Abl kinase domain; test: RP-HPLC assay to measure peptide phosphorylation kinetics; type: biochemical; conditions: purified peptide substrate
[6] = test system: EPHB1 kinase domain; test: ADP-Quest continuous fluorimetric kinase assay (initial rates of consensus peptides); type: biochemical, human; conditions: peptide 100 or 20 μM, kinase 10–50 nM; Figure 2C and supplement 2
From the text: A fluorescence-based assay from Eurofins (ADP Quest) was used to measure the Michaelis-Menten kinetic parameters for phosphorylation of the consensus peptides by purified tyrosine kinase domains. In this assay, ADP production as a result of kinase activity is coupled to the production of resorufin, a fluorophore that emits signal at 590 nm. For all experiments, the assay reactions were set up as described in the provided assay kit protocol, in a 384 well plate format. The peptide solutions were serially diluted in 100 mM Tris, pH 8.0, and the kinases were diluted to 50 nM in buffer (10 mM HEPES, 100 mM NaCl, 1 mM TCEP, 5 mM MgCl2, 10% (v/v) glycerol). The final reaction mixtures contained 10 nM of kinase with 100 μM of ATP. […] Phosphorylation reaction progress was monitored by measuring fluorescence at excitation 530 nm and emission 590 nm every 2 min at 37 °C on a plate reader (BioTek Synergy Neo 2). The fluorescence units (RFU) were converted to μM ADP by comparison to a standard curve, and the initial rates were extracted from the linear regime of the reaction progress curves. Initial rates were also measured for samples containing each kinase but lacking a peptide substrate, to account for background ATP hydrolysis. This background rate was subtracted from the rates measured in the presence of peptide. […]

[7] = biological target: T2, c-Src kinase domain; test: RP-HPLC assay to measure peptide phosphorylation kinetics; type: biochemical; conditions: purified peptide substrate
[8] = biological target: T1, c-Abl kinase domain; test: pTyr-Var library bacterial peptide display kinase screen (enrichment scores); type: biochemical
[9] = biological target: human c-Src SH2 domain (residues 143-250) (human, UniProt P12931-1 143-250, biotin on the Avi tag (co-expression with the biotin ligase BirA)); test: fluorescence polarisation; direct titration: varying concentrations of c-Src SH2 with 30 nM fluorescent peptide, 15 min; 60 mM HEPES pH 7.2, 75 mM KCl, 75 mM NaCl, 1 mM EDTA, 0.05% Tween 20; 25 °C; quadratic binding equation; conditions: both partners purified
[10] = biological target: mouse c-Abl kinase domain (residues 232-502) (mouse) (UniProt P00520)
[11] = variant peptide versus its reference peptide in the pTyr-Var library screen
[12] = value of the variant peptide against its reference peptide in the pTyr-Var library screen with Fer
[13] = effect of variant peptide relative to its reference peptide in the pTyr-Var library screen (enrichment scores)
[14] = effect of the variant peptide relative to its reference peptide in the pTyr-Var library screen
[15] = variant peptide relative to its reference peptide, pTyr-Var library screen enrichment
[16] = effect of the variant relative to its reference peptide in the pTyr-Var library screen
[17] = fig5-data2, sheet "Abl", Screen for the variant/reference peptide pair, pTyr-Var library

Chain of mouse c-Abl kinase domain (residues 232-502) (mouse) (P00520 232-502): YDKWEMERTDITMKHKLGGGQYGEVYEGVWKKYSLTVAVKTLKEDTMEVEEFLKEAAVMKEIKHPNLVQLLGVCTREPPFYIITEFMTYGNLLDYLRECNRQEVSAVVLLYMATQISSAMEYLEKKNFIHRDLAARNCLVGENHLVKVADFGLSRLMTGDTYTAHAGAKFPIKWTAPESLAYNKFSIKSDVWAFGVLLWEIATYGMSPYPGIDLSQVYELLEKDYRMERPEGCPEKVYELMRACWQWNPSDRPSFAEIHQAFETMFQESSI

Row | Molecule | Screen [2, 12] | Screen [3] | Screen [4, 13] | Screen [1, 14] | also measured
1 | AAAAVYTFLPD [MYORG_Y36_M35V] | 0.8509 | 0.3532 | 0.71 |  | Screen [1, 11]: 0.6423
2 | ADCRFYTFPQM [GAMT_Y223_A224T_YF] | -1.641 | -1.572 | -2.189 |  | 
3 | ASENVYVNTAH [CTSC_Y150_I153T] | -2.892 | -1.518 |  | -1.46 | 
4 | Ac-GNLLIYTELGK-NH2 [HGD_Y166_F169L, pTyr-Var library variant peptide, non-canonical c-Abl substrate] |  | 1.156 | 1.177 | -0.3242 | Phosphorylation Rate [5]: 0.238 s⁻¹
5 | Ac-GPPEPNYEVIPPKKKG-NH2 [EPHB1 Consensus, EPHB1 consensus substrate peptide from X5-Y-X5 screen] |  |  |  |  | phosphorylation of consensus peptide by EPHB1 (initial rate relative to cognate consensus) [6]: did not prefer
6 | Ac-IGEGTYGQVFK-NH2 [CDK13_Y716_YF] |  |  |  |  | Phosphorylation Rate [7]: 3.100 s⁻¹
7 | Ac-IGEGTYGTVFK-NH2 [CDK5-Y15] |  |  |  |  | Phosphorylation Rate [7]: 2.587 s⁻¹; Phosphorylation Rate [5]: 0.085 s⁻¹
8 | Ac-IGEGTYRQVFK-NH2 [CDK13_Y716_G717R_YF, pTyr-Var library variant phosphosite peptide] |  |  |  | -4.535 | Phosphorylation Rate [7]: 0.195 s⁻¹
9 | CFSSEYHFVGG [CTSC_Y345_Y340C_YF] |  | -0.7957 | -0.9567 | -0.6697 | 
10 | CPSLLYSPVSS [CAMKK2_Y128_P127L] | 2.071 | 3.226 | 2.723 | 2.179 | 
11 | DNEALYDICFC [TUBB3_Y208_R213C] |  |  |  |  | Screen [1, 11]: 0.09389; Screen [2, 15]: 0.2993; Screen (variant relative to reference peptide, measured in the pTyr-Var library screen) [3]: -0.1227; Screen [4, 16]: 0.1536
12 | DNEALYDTCFR [TUBB2B_Y208_I210T] |  |  |  |  | Screen [1, 11]: -0.1626; Screen [2, 15]: -0.2841; Screen (variant relative to reference peptide, measured in the pTyr-Var library screen) [3]: -0.7019; Screen [4, 16]: -0.7919
13 | DPLLTYWFPPK [LMNA_Y481_R482W] |  | 4.875 | 5.36 | 3.284 | 
14 | FNSLLYQVPTS [CALCOCO2_Y358_P357L] | 3.519 | 4.751 | 5.149 | 2.72 | 
15 | HMEAVYIDIAD [PITPNA_Y140_V136M] | 1.696 | 1.841 | 1.927 |  | Screen [1, 11]: 0.9488
16 | HRGCLYLAIEF [TEK_Y899_Y897C_YF] |  |  | 0.2155 |  | 
17 | ITNHIYTWVDP [DFNB31_Y234_V229I] | -0.03067 | 0.06659 | -0.0087 | 0.3882 | 
18 | ITNLLYHVVGG [GBA_Y412_W417G] | -1.01 | 0.07416 | -0.0356 | -0.2777 | 
19 | ITSLLYHVVGW [GBA_Y412_N409S] | 0.08882 | -0.08421 | -0.2083 | -0.3669 | 
20 | KCCCIYEKPRS [PPP1R11_Y64_A69S] | -0.1382 |  |  |  | Screen [1, 11]: -0.2424; Screen [8, 17]: 0.7147
21 | KMKGDYFCFLA [YWHAG_Y130_R132C_YF] |  |  |  |  | Screen [1, 11]: 0.4816; Screen (variant relative to reference peptide, measured in the pTyr-Var library screen) [3]: 1.698; Screen [4, 16]: 1.601

Row | Molecule | Screen [2, 12] | Screen [3] | Screen [4, 13] | Screen [1, 14] | also measured
22 | LDAFIYDAALL [GRIN2A_Y730_V734L] | -0.3557 | -0.2525 | -0.3341 | 0.1286 | 
23 | LEDPMYDIIRD [RP9_Y142_H137L] |  | 0.4802 | 0.7516 |  | Screen [1, 11]: 0.5395; Screen [2, 15]: 0.5422
24 | LEQGEYALRSH [HADHB_Y244_D242G] |  |  | -1.376 |  | 
25 | LHNLFYQLEAE [PKP2_Y616_S615F] | 1.632 |  | 1.672 |  | Screen [1, 11]: 4.082
26 | LTERSYSFVTT [ACTA1_Y200_G199S] | 1.792 |  |  |  | Screen [8, 17]: 0.4799
27 | NAGDFYDLFGG [PTPN11_Y63_T59A_YF] |  |  |  |  | Screen [1, 11]: 0.4386; Screen [8, 17]: -0.2092; Screen [2, 15]: 0.394
28 | NNDLCYWVLEL [IARS1_Y434_P437L] |  | -1.633 | -2.3 | 1.285 | 
29 | NNHGNYIVLLG [ETFDH_Y172_R175L] |  | 3.773 | 2.804 |  | 
30 | PKSWNYELPAT [PROM1_Y34_A31S] |  | 0.9154 | 0.6095 |  | 
31 | PLDGEYFTPQI [TP53_Y327_L330P] |  |  |  |  | Screen [1, 11]: -3.182; Screen (variant relative to reference peptide, measured in the pTyr-Var library screen) [3]: -0.3708; Screen [4, 16]: 0.1464
32 | PNAFIYVVQLP [L1CAM_Y420_A415P_YF] |  |  | 0.851 |  | Screen [8, 17]: 0.6294
33 | QPEDIYHQTWA [GBA_Y244_G241E] | 1.354 |  |  | 0.7767 | 
34 | RRIHSYRGFLW [VHL_Y112_H115Y_YF] |  |  |  |  | Screen [1, 11]: -2.75; Screen ([8]; sheet "Abl", effect of variant peptide relative to its reference peptide in pTyr-Var library screen (enrichment)): -4.49; Screen (variant relative to reference peptide, measured in the pTyr-Var library screen) [3]: -2.336; Screen [4, 16]: -0.9029
35 | SDPIVYTLENI [EMR1_Y534_I533V] | -1.778 |  |  | -0.3296 | 
36 | SNTFLYQLVFD [EXO1_Y284_N279S] | -0.008577 | 0.05167 | -0.053 | -0.03965 | 
37 | TLSGIYQFNIA [FOXL2_Y81_I84N_YF] | -1.015 | -4.223 | -4.083 | -0.3308 | 
38 | TQNAVYSAANF [DDX5_Y535_G533A_YF] | 0.4164 | 1.023 | 1.01 | 0.6379 | 
39 | TTSQLYDAMPI [PDPK1_Y9_V12M] | -0.6658 | -0.6854 | -1.368 |  | Screen [1, 11]: -0.9144
40 | {FITC-Ahx}-GDG[pY]EEISPLLL-NH2 (SMILES CC[C@H](C)[C@H](NC(=O)[C@H](CCC(=O)O)NC(=O)[C@H](CCC(=O)O)NC(=O)[C@H](Cc1ccc(OP(=O)(O)O)cc1)NC(=O)CNC(=O)[C@H](CC(=O)O)NC(=O)CNC(=O)CCCCCNC(=S)Nc1ccc2c(c1)C(=O)OC21c2ccc(O)cc2Oc2cc(O)ccc21)C(=O)N[C@@H](CO)C(=O)N1CCC[C@H]1C(=O)N[C@@H](CC(C)C)C(=O)N[C@@H](CC(C)C)C(=O)N[C@@H](CC(C)C)C(N)=O, also called fluorescent peptide; source: gift from the Amacher lab (Western Washington University)) [fluorescently-labeled c-Src-SH2 consensus peptide FITC-Ahx-GDG(pY)EEISPLLL-NH2] |  |  |  |  | Kd [9]: 160 nM
41 | Ac-GPDEPIYAVPPIKKKG-NH2 [Abl Consensus peptide Ac-…-NH2] |  |  |  |  | KM (μM) of phosphorylation, Michaelis-Menten analysis, ADP-Quest assay [10]: 6 µM
